For this series, the system named is CD8^+ T cell clone T81. The experiment in a line: Outgrowth of T81 CTL under G418 drug selection. Type of series: cell-based, mouse. To be noted: parental T81 cells, doses used for selection. The protocol: • A. Selection of CD8^+T cell clone T81 transduced with retroviral vector L.IL-1RSN encoding murine IL-1R. The retroviral vector L.IL-1RSN encoding the murine IL-1 receptor was introduced into the tumor specific CD3^+, CD8^+ T cell clone T81 as follows. T81 is specific for an antigen expressed on the K1735 mouse melanoma cell line. T81 was propagated by stimulation every 8-10 days with tumor antigen and irradiated syngeneic splenocytes as feeder cells. Recombinant IL-2 (50 U/ml) was added to the cultures 48 hours following stimulation. […] The cells were analyzed for M5 binding on a Beckton-Dickinson FACscan analyzer. […] The IL-1 receptors on the T81 cells infected with the L.IL-1RSN vector were analyzed for ^125I-IL-1α binding as previously described (Dower et al., Nature (Lond) 324 :266,1986). […] Nonspecific binding of ^125I-IL-1 was measured by incubation in the presence of an excess of unlabelled IL-1. At the end of the incubation, bound and free ^125I-IL-1 were separated by centrifugation over a phthalate oil mixture and the amount of radiolabel in each fraction measured. The data were corrected for non-specific binding and then analyzed by nonlinear least square fitting to estimate the number of IL-1R/cell. […]

Molecules are shown by their SMILES.

In the case of `CN[C@@H]1[C@@H](O)[C@@H](O[C@@H]2[C@@H](O)[C@H](O[C@H]3O[C@H]([C@@H](C)O)[C@@H](O)[C@H](O)[C@H]3N)[C@@H](N)C[C@H]2N)OC[C@]1(C)O` [G418], the “toxicity of G418 to cells” value is “toxic to the parental cells”.

The values are drawn from patent publication EP0553186B1, “METHOD FOR PRODUCING T H?-I[…] T LYMPHOCYTES” (IMMUNEX CORPORATION, priority 1990, dated 1992).
